The text below walks through data of patent US10125118B2, “Heteroaryl compounds and their use as therapeutic drugs” (Dong-A Socio Holdings Co., Ltd., priority 2015, dated 2018).

The term GI50 denotes the concentration at which growth is held to half of that of the control. Broadly, the IC50 is the concentration at which inhibition is half-maximal.

The test system of experiment [1] is CD8-MerTK in Ba/F3-CDM cells. Briefly: In cell MER kinase assay, Ba/F3-CDM cell proliferation without IL-3 (Celltiter-Glo). Format: cell-based, murine. Conditions: 48 hours compound treatment, read-out: Cell growth inhibition (GI50). The procedure, abridged: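 Ba/F3 cells, IL-3-dependent, transfected with CD8-MerTK and grown without IL-3 in DMEM/10% FBS. IL-3-supplemented Ba/F3 cells run in parallel as a cytotoxicity control.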
In general terms: ATP-based viability assays read luminescence as a measure of living cells.

The target of experiment [2] is human c-MER catalytic domain (Homo sapiens (Human), UniProt Q12866). As to the kind of experiment: LanthaScreen TR-FRET kinase assay, c-MER. The following applies: read-out: Mer TK inhibition (IC50); Biochemical IC50, TR-FRET, 10 uM ATP. A general note: Time-resolved FRET reads energy transfer from a long-lived donor to a nearby acceptor.
human c-MER catalytic domain, sequence (Q12866 587-858): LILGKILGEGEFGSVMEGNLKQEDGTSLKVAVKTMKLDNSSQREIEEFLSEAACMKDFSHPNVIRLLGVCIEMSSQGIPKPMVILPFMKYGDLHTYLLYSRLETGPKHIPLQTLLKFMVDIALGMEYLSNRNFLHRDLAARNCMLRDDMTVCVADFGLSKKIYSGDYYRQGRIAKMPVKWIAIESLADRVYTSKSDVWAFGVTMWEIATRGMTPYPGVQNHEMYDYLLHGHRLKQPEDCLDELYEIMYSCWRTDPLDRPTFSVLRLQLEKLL

Take `CN1CCN(Cc2ccc(-c3ccc(CO[C@H]4CCC[C@@H]4NC(=O)c4cc(-c5ccncc5)cnc4N)cc3)cc2)CC1` [Example 377, 6-amino-N-((1S,2S)-2-((4′-((4-methylpiperazin-1-yl)methyl)-[1,1′-biphenyl]-4-yl)methoxy)cyclopentyl)-[3,4′-bipyridine]-5-carboxamide]: the 50% growth inhibitory concentration (GI50) in experiment [1] was under 100 nM. In addition, the IC50 in experiment [2] is under 10 nM.

As to `CN1CCN(Cc2ccc(-c3ccc(CO[C@H]4COC[C@@H]4NC(=O)c4cc(-c5cnn(C)c5)cnc4N)cc3)cc2C(F)(F)F)CC1` [Example 449, 2-amino-5-(1-methyl-1H-pyrazol-4-yl)-N-((3S,4R)-4-((4′-((4-methylpiperazin-1-yl)methyl)-3′-(trifluoromethyl)-[1,1′-biphenyl]-4-yl)methoxy)-tetrahydrofuran-3-yl)nicotinamide], in experiment [1], the 50% growth inhibitory concentration (GI50) was under 100 nM. Also, the IC50 in experiment [2] was under 10 nM.

As for `CCN1CCN(Cc2ccc(-c3ccc(CO[C@H]4CCC[C@@H]4NC(=O)c4cc(-c5cnn(C)c5)cnc4N)cc3)cc2)CC1` [Example 183, 2-amino-N-((1S,2S)-2-((4′-((4-ethylpiperazin-1-yl)methyl)-[1,1′-biphenyl]-4-yl)methoxy)cyclopentyl)-5-(1-methyl-1H-pyrazol-4-yl)nicotinamide], the concentration for 50% growth inhibition (GI50) in experiment [1] is under 100 nM. For the same compound, the half-inhibitory concentration (IC50) in experiment [2] is under 10 nM.

With `Cc1cccc(-c2cnc(N)c(C(=O)N[C@H]3CCC[C@@H]3OCc3ccc(-c4ccc(CN5CCN(C)CC5)cc4)cc3)c2)c1` [Example 370, 2-amino-N-((1S,2S)-2-((4′-((4-methylpiperazin-1-yl)methyl)-[1,1′-biphenyl]-4-yl)methoxy)cyclopentyl)-5-(m-tolyl)nicotinamide], in experiment [1], the concentration for 50% growth inhibition (GI50) was under 100 nM. In addition, the IC50 in experiment [2] was under 10 nM.

As to `Cn1cc(-c2cnc(N)c(C(=O)N[C@H]3COC[C@@H]3OCc3ccc(-c4ccc(C(C)(C)N5CCN(CCO)CC5)cc4)cc3)c2)cn1` [Example 453, 2-amino-N-((3S,4R)-4-((4′-(2-(4-(2-hydroxyethyl)piperazin-1-yl)-propan-2-yl)-[1,1′-biphenyl]-4-yl)methoxy)tetrahydrofuran-3-yl)-5-(1-methyl-1H-pyrazol-4-yl)nicotinamide], the GI50 in experiment [1] lay in the range of 100 to 500 nM. In experiment [2], the 50% inhibitory concentration (IC50) is under 10 nM.

Turning to `CN1CCN(Cc2ccc(-c3ccc(CO[C@H]4CCC[C@@H]4NC(=O)c4cc(-c5cc(F)nc(F)c5)cnc4N)cc3)cc2)CC1` [Example 384], in experiment [1], the GI50 is under 100 nM. Besides, the 50% inhibitory concentration (IC50) in experiment [2] is under 10 nM.

For the compound `CCc1cc(CO[C@H]2CNC[C@@H]2NC(=O)c2cc(-c3ccc(C(=O)NC4CCN(C)CC4)cc3)cnc2N)ccc1C` [Example 419, 2-amino-N-((3S,4S)-4-((3-ethyl-4-methylbenzyl)oxy)pyrrolidin-3-yl)-5-(4-((1-methylpiperidin-4-yl)carbamoyl)phenyl)nicotinamide], the concentration for 50% growth inhibition (GI50) in experiment [1] is over 1000 nM. Moreover, the half-maximal inhibitory concentration (IC50) in experiment [2] is under 10 nM.

With `Cn1cc(-c2cnc(N)c(C(=O)N[C@H]3CCC[C@@H]3OCc3ccc(-c4ccc(CN5CCC(N6CCCC6)CC5)cc4)cc3)c2)cn1` [Example 179, 2-amino-5-(1-methyl-1H-pyrazol-4-yl)-N-((1S,2S)-2-((4′-((4-(pyrrolidin-1-yl)piperidin-1-yl)methyl)-[1,1′-biphenyl]-4-yl)methoxy)cyclopentyl)-nicotinamide], in experiment [1], the 50% growth inhibitory concentration (GI50) was in the range of 100 to 500 nM. Also, in experiment [2], the half-inhibitory concentration (IC50) was under 10 nM.

With `CN1CCN(Cc2ccc(-c3ccc(OC[C@H]4CCC[C@@H]4NC(=O)c4cc(-c5cnn(C)c5)cnc4N)cc3)cc2)CC1` [Example 86, 2-amino-5-(1-methyl-1H-pyrazol-4-yl)-N-((1S,2S)-2-(((4′-((4-methylpiperazin-1-yl)methyl)-[1,1′-biphenyl]-4-yl)oxy)methyl)cyclopentyl)nicotinamide], the GI50 in experiment [1] was in the range of 100 to 500 nM. Moreover, the IC50 in experiment [2] was under 10 nM.

In the case of `COc1ccc(-c2cnc(N)c(C(=O)N[C@H]3CCC[C@@H]3OCc3ccc(-c4ccc(CN5CCN(C)CC5)cc4)cc3)c2)cc1OC` [Example 383, 2-amino-5-(3,4-dimethoxyphenyl)-N-((1S,2S)-2-((4′-((4-methylpiperazin-1-yl)methyl)-[1,1′-biphenyl]-4-yl)methoxy)cyclopentyl)nicotinamide], the GI50 in experiment [1] is under 100 nM. Further, in experiment [2], the IC50 is under 10 nM.

`CCc1cc(CO[C@H]2CNC[C@@H]2NC(=O)c2cc(-c3ccc(CN4CCN(C)CC4)cc3)cnc2N)ccc1C` [Example 390, 2-amino-N-((3S,4S)-4-((3-ethyl-4-methylbenzyl)oxy)pyrrolidin-3-yl)-5-(4-((4-methylpiperazin-1-yl)methyl)phenyl)nicotinamide]: in experiment [1], the GI50 lay in the range of 100 to 500 nM. The half-maximal inhibitory concentration (IC50) in experiment [2] was under 10 nM.

On to `CC(c1ccc(-c2ccc(CO[C@H]3CCC[C@@H]3NC(=O)c3cc(F)cnc3N)cc2)cc1)N1CCN(C)CC1` (stereo partly drawn) [Example 232, 2-amino-5-fluoro-N-((1S,2S)-2-((4′-(1-(4-methylpiperazin-1-yl)-ethyl)-[1,1′-biphenyl]-4-yl)methoxy)cyclopentyl)nicotinamide], for which the GI50 in experiment [1] lay within 500 to 1000 nM. For the same compound, in experiment [2], the IC50 is under 10 nM.

For the compound `CCC1CN(Cc2ccc(-c3ccc(CO[C@H]4CCC[C@@H]4NC(=O)c4cc(-c5cnn(C)c5)cnc4N)cc3)cc2)CCN1C` (stereo partly drawn) [Example 188, 2-amino-N-((1S,2S)-2-((4′-((3-ethyl-4-methylpiperazin-1-yl)-methyl)-[1,1′-biphenyl]-4-yl)methoxy)cyclopentyl)-5-(1-methyl-1H-pyrazol-4-yl)-nicotinamide], the GI50 in experiment [1] is under 100 nM. In addition, the IC50 in experiment [2] was under 10 nM.

With `CC1CCN(Cc2ccc(-c3cnc(N)c(C(=O)N[C@H]4CCC[C@@H]4OCc4ccc(-c5ccc(CN6CCN(C)CC6)cc5)cc4)c3)cc2)CC1` [Example 378, 2-amino-N-((1S,2S)-2-((4′-((4-methylpiperazin-1-yl)methyl)-[1,1′-biphenyl]-4-yl)methoxy)cyclopentyl)-5-(4-((4-methylpiperidin-1-yl)methyl)phenyl)-nicotinamide], the 50% growth inhibitory concentration (GI50) in experiment [1] was under 100 nM. Besides, the IC50 in experiment [2] is under 10 nM.

On to `Cn1cc(-c2cnc(N)c(C(=O)N[C@H]3CNC[C@@H]3OCc3ccc(-c4ccc(CN5CCN(CCO)CC5)c(C(F)(F)F)c4)cc3)c2)cn1` [Example 444, 2-amino-N-((3S,4S)-4-((4′-((4-(2-hydroxyethyl)piperazin-1-yl)-methyl)-3′-(trifluoromethyl)-[1,1′-biphenyl]-4-yl)methoxy)pyrrolidin-3-yl)-5-(1-methyl-1H-pyrazol-4-yl)nicotinamide], for which the concentration for 50% growth inhibition (GI50) in experiment [1] was over 1000 nM. In experiment [2], the IC50 was under 10 nM.

Consider `CN1C[C@H](NC(=O)c2cc(-c3cnn(C)c3)cnc2N)[C@@H](OCc2ccc(-c3ccc(C(C)(C)N4CCN(CCO)CC4)cc3)cc2)C1` [Example 441], for which the concentration for 50% growth inhibition (GI50) in experiment [1] was in the range of 100 to 500 nM. For the same compound, in experiment [2], the IC50 was under 10 nM.

In the case of `CN1CCN(Cc2ccc(-c3ccc(CO[C@H]4CCC[C@@H]4NC(=O)c4cc(-c5cnn(C)c5)cnc4N)cc3)cn2)CC1` [Example 203, 2-amino-5-(1-methyl-1H-pyrazol-4-yl)-N-((1S,2S)-2-((4-(6-((4-methylpiperazin-1-yl)methyl)pyridin-3-yl)benzyl)oxy)cyclopentyl)nicotinamide], the GI50 in experiment [1] is 100 to 500 nM. Also, the IC50 in experiment [2] was under 10 nM.

Consider `C[C@@H]1CN(Cc2ccc(-c3ccc(CO[C@H]4CCC[C@@H]4NC(=O)c4cc(-c5cnn(C)c5)cnc4N)cc3)cc2)CCN1C` [Example 186, 2-amino-N-((1S,2S)-2-((4′-(((R)-3,4-dimethylpiperazin-1-yl)-methyl)-[1,1′-biphenyl]-4-yl)methoxy)cyclopentyl)-5-(1-methyl-1H-pyrazol-4-yl)-nicotinamide], for which the concentration for 50% growth inhibition (GI50) in experiment [1] is under 100 nM. Moreover, in experiment [2], the IC50 was under 10 nM.

Consider `CN1CCN(Cc2ccc(-c3ccc(CO[C@H]4CN(C)C[C@@H]4NC(=O)c4cc(-c5cnn(C)c5)cnc4N)cc3)cc2)CC1` [Example 435, 2-amino-5-(1-methyl-1H-pyrazol-4-yl)-N-((3S,4S)-1-methyl-4-((4′-((4-methylpiperazin-1-yl)methyl)-[1,1′-biphenyl]-4-yl)methoxy)pyrrolidin-3-yl)-nicotinamide], for which the 50% growth inhibitory concentration (GI50) in experiment [1] was 100 to 500 nM. Besides, the half-maximal inhibitory concentration (IC50) in experiment [2] was under 10 nM.
